Laboratory results reported in paper PMC5107896 (Scientific Reports, 2016).

What was measured:
Format in all cases: biochemical
[1] = biological target: T1, Prostaglandin G/H synthase 2 (PTGS2/COX2) (Ovis aries, UniProt P79208); test: Colorimetric COX (ovine) inhibitor screening assay kit (Cayman)
T1 sequence (P79208 17-603): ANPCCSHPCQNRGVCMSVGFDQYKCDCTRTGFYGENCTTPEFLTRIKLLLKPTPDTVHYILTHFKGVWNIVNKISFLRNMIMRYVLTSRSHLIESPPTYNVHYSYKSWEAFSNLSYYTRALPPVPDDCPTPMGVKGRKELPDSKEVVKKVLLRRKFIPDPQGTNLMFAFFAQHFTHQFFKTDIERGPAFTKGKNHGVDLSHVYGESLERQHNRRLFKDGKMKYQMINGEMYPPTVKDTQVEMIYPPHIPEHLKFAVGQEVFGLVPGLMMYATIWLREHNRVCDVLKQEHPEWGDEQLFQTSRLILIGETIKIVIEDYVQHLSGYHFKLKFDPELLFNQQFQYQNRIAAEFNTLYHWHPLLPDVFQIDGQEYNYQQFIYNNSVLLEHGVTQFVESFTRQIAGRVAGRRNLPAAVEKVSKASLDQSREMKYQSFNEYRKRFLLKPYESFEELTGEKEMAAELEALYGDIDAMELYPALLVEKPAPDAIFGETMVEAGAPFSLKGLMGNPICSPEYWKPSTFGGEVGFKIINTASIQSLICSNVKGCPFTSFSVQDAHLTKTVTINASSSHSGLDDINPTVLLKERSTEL

[2] = biological target: T2, Monoamine oxidase A (MAOA) (Homo sapiens, UniProt P21397); test: in vitro MAOA inhibition assay (enzyme purchased)
T2 sequence (P21397 1-527): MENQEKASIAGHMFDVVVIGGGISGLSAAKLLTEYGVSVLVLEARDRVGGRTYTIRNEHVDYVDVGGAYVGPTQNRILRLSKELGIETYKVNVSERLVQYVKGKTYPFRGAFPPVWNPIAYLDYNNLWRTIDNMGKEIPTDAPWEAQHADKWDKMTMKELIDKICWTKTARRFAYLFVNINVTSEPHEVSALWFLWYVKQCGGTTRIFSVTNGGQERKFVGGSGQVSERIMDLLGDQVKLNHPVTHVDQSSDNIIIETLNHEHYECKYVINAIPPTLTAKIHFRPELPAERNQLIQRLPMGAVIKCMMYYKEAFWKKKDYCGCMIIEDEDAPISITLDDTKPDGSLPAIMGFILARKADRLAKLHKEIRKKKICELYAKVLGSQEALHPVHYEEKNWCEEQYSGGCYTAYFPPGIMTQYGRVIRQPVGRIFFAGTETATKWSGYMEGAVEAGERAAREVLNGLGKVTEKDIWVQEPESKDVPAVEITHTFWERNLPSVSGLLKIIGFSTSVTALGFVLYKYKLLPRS

[3] = biological target: Factor Xa (F10) (Homo sapiens, UniProt P00742); test: SensoLyte Rh110 Factor Xa Assay Kit (enzyme inhibition)
Factor Xa (F10), sequence (P00742 41-179): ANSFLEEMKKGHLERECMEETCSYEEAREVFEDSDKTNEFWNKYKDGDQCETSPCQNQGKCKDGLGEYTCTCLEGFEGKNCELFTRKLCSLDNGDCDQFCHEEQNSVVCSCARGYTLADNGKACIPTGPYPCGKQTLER
Factor Xa (F10), sequence (P00742 235-488): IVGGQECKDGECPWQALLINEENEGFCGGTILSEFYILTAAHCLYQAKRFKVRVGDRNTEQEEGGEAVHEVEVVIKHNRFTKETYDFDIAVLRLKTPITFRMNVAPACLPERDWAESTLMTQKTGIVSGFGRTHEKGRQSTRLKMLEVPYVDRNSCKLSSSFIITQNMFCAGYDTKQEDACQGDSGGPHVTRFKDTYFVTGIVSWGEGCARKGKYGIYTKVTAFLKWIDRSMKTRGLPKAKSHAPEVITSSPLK

SMILES: O=c1c(O)c(-c2ccc(O)cc2)oc2cc(O)cc(O)c12 [kaempferol]
- IC50 [1]: 37400 nM

SMILES: O=c1cc(-c2ccc(O)c(O)c2)oc2cc(O)cc(O)c12 [luteolin]
- IC50 [2]: 10 nM

SMILES: O=C(/C=C/c1ccc(O)c(O)c1/C=C/c1ccc(O)c(O)c1)O[C@H](Cc1ccc(O)c(O)c1)C(=O)O [salvianolic acid A]
- IC50 [3]: 90 nM
